- melting point: 100 to 101 °C
Compound: COC(=O)NOc1cc(/C(C)=N/OCc2cccc(C(F)(F)F)n2)ccc1Cl [Compound 1446, methyl N-(2-chloro-5-{1-[6-trifluoromethylpyridin-2-ylmethoxyimino]ethyl}phenoxy) carbamate]
